Read-outs that look alike come from different tables or passages of the source.
Assays:
[1] = target: T1, Recombinant human JAK2 kinase domain protein (Residues 812-1132) (Homo sapiens, UniProt O60674); experiment: JAK2 biochemical assay (microfluidic mobility shift, peptide phosphorylation); conditions: 25 μM ATP, 0.2 nM total JAK2; Ki calculated from Ki app (tight-binding, competitive); read-out: Biochem JAK2 Ki
T1 construct: human JAK2 kinase domain protein (Residues 812-1132); made in house; host or cells: insect cells
T1 sequence (O60674 812-1132): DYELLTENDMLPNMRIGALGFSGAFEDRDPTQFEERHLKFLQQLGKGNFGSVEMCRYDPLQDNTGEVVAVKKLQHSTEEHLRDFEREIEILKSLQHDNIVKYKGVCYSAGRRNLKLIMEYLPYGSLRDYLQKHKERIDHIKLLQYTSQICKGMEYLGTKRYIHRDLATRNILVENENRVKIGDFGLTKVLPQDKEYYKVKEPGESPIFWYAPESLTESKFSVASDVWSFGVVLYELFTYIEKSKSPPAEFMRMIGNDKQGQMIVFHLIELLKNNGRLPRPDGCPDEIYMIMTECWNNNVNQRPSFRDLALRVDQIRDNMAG
Outline: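 Insect-cell-expressed human JAK1 (1 nM, residues 854-1154) or JAK2 (0.2 nM, residues 812-1132) phosphorylating 1.5 μM 5-FAM peptide Y-1B with 25 μM ATP, pH 7.2 HEPES, 30 min at 22-23 °C; twelve concentrations up to 1000 nM in duplicate. Mobility-shift % conversion fitted to tight-binding quadratic for Ki^app.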

[2] = system: JAK1 (IL-13-stimulated STAT6 phosphorylation in BEAS-2B cells); experiment: P-STAT6 BEAS-2B+IL-13 cell assay; assay type: cell-based, human; conditions: 1 hour compound, IL-13 15 minutes, IC50 by four-parameter fit, read-out: Cellular JAK1 PSTAT6 BEAS2B + IL13
Outline: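 BEAS-2B human bronchial epithelial cells preincubated 1 h at 37 °C with compound, then stimulated with human recombinant IL-13 for 15 min. Phospho-STAT6 (Tyr641) in lysates measured by MSD electrochemiluminescence immunoassay; IC50 from a four-parameter logistic fit of percent of control.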

SMILES	Ki [1] [nM]	IC50 ([2]; Homo sapiens, BEAS-2B, 1 h) [nM]	IC50 [2] [nM]
O=C(Nc1cn(Cc2nnn(C3CCNC3)n2)nc1-c1cc(OC(F)F)ccc1OC(F)F)c1cnn2cccnc12 (single isomer, unassigned) [Example 27, N-[3-[2,5-bis(difluoromethoxy)phenyl]-1-[(2-pyrrolidin-3-yltetrazol-5-yl)methyl]pyrazol-4-yl]pyrazolo[1,5-a]pyrimidine-3-carboxamide]	0.38	12	–
O=C(Nc1cn(Cc2nnn(C3CCNC3)n2)nc1-c1cc(OC(F)F)ccc1OC(F)F)c1cnn2cccnc12 (single isomer, unassigned) [Example 28, N-[3-[2,5-bis(difluoromethoxy)phenyl]-1-[(2-pyrrolidin-3-yltetrazol-5-yl)methyl]pyrazol-4-yl]pyrazolo[1,5-a]pyrimidine-3-carboxamide]	0.36	–	12
CN1CCC(N2CC(n3nnc(Cn4cc(NC(=O)c5cnn6cccnc56)c(-c5cc(OC(F)F)ccc5OC(F)F)n4)n3)C2)C1 (single isomer, unassigned) [Example 72, N-[3-[2,5-bis(difluoromethoxy)phenyl]-1-[[2-[1-(1-methylpyrrolidin-3-yl)azetidin-3-yl]tetrazol-5-yl]methyl]pyrazol-4-yl]pyrazolo[1,5-a]pyrimidine-3-carboxamide]	0.48	36	–
CN1CC(n2nnc(Cn3cc(NC(=O)c4cnn5cccnc45)c(-c4cc(Cl)ccc4OC(F)F)n3)n2)C1 [Example 7, N-[3-[5-chloro-2-(difluoromethoxy)phenyl]-1-[[2-(1-methylazetidin-3-yl)tetrazol-5-yl]methyl]pyrazol-4-yl]pyrazolo[1,5-a]pyrimidine-3-carboxamide]	0.17	9.8	–
O=C(Nc1cn(Cc2nnn(C3CNC3)n2)nc1-c1cc(Cl)ccc1OC(F)F)c1cnn2cccnc12 [Example 8, N-[1-[[2-(azetidin-3-yl)tetrazol-5-yl]methyl]-3-[5-chloro-2-(difluoromethoxy)phenyl]pyrazol-4-yl]pyrazolo[1,5-a]pyrimidine-3-carboxamide]	0.28	9.3	–
CN1CC(n2nnc(Cn3cc(NC(=O)c4cnn5cccnc45)c(-c4cc(OC(F)F)ccc4OC(F)F)n3)n2)C1 [Example 10, N-[3-[2,5-bis(difluoromethoxy)phenyl]-1-[[2-(1-methylazetidin-3-yl)tetrazol-5-yl]methyl]pyrazol-4-yl]pyrazolo[1,5-a]pyrimidine-3-carboxamide]	0.24	17	–
O=C(Nc1cn(Cc2nnn(C3CNC3)n2)nc1-c1cc(OC(F)F)ccc1OC(F)F)c1cnn2cccnc12 [Example 11, N-[1-[[2-(azetidin-3-yl)tetrazol-5-yl]methyl]-3-[2,5-bis(difluoromethoxy)phenyl]pyrazol-4-yl]pyrazolo[1,5-a]pyrimidine-3-carboxamide]	0.27	23	–
O=C(Nc1cn(Cc2nnnn2C2CNC2)nc1-c1cc(OC(F)F)ccc1OC(F)F)c1cnn2cccnc12 [Example 12, N-[1-[[1-(azetidin-3-yl)tetrazol-5-yl]methyl]-3-[2,5-bis(difluoromethoxy)phenyl]pyrazol-4-yl]pyrazolo[1,5-a]pyrimidine-3-carboxamide]	0.18	31	–
NCCn1nnc(Cn2cc(NC(=O)c3cnn4cccnc34)c(-c3cc(OC(F)F)ccc3OC(F)F)n2)n1 [Example 13, N-[1-[[2-(2-aminoethyl)tetrazol-5-yl]methyl]-3-[2,5-bis(difluoromethoxy)phenyl]pyrazol-4-yl]pyrazolo[1,5-a]pyrimidine-3-carboxamide]	0.16	11	–
NCCn1nnnc1Cn1cc(NC(=O)c2cnn3cccnc23)c(-c2cc(OC(F)F)ccc2OC(F)F)n1 [Example 14, N-[1-[[1-(2-aminoethyl)tetrazol-5-yl]methyl]-3-[2,5-bis(difluoromethoxy)phenyl]pyrazol-4-yl]pyrazolo[1,5-a]pyrimidine-3-carboxamide]	0.12	39	–
CN1CC(n2nnnc2Cn2cc(NC(=O)c3cnn4cccnc34)c(-c3cc(Cl)ccc3OC(F)F)n2)C1 [Example 15, N-[3-[5-chloro-2-(difluoromethoxy)phenyl]-1-[[1-(1-methylazetidin-3-yl)tetrazol-5-yl]methyl]pyrazol-4-yl]pyrazolo[1,5-a]pyrimidine-3-carboxamide]	0.092	8.6	–
CN(C)CCn1nnc(Cn2cc(NC(=O)c3cnn4cccnc34)c(-c3cc(OC(F)F)ccc3OC(F)F)n2)n1 [Example 16, N-[3-[2,5-bis(difluoromethoxy)phenyl]-1-[[2-[2-(dimethylamino)ethyl]tetrazol-5-yl]methyl]pyrazol-4-yl]pyrazolo[1,5-a]pyrimidine-3-carboxamide]	0.27	18	–
CN(C)CCn1nnnc1Cn1cc(NC(=O)c2cnn3cccnc23)c(-c2cc(OC(F)F)ccc2OC(F)F)n1 [Example 17, N-[3-[2,5-bis(difluoromethoxy)phenyl]-1-[[1-[2-(dimethylamino)ethyl]tetrazol-5-yl]methyl]pyrazol-4-yl]pyrazolo[1,5-a]pyrimidine-3-carboxamide]	0.23	19	–
O=C(Nc1cn(Cc2nnn(C3CCNCC3)n2)nc1-c1cc(OC(F)F)ccc1OC(F)F)c1cnn2cccnc12 [Example 18, N-[3-[2,5-bis(difluoromethoxy)phenyl]-1-[[2-(4-piperidyl)tetrazol-5-yl]methyl]pyrazol-4-yl]pyrazolo[1,5-a]pyrimidine-3-carboxamide]	0.43	35	–
CNCCn1nnnc1Cn1cc(NC(=O)c2cnn3cccnc23)c(-c2cc(OC(F)F)ccc2OC(F)F)n1 [Example 19, N-[3-[2,5-bis(difluoromethoxy)phenyl]-1-[[1-[2-(methylamino)ethyl]tetrazol-5-yl]methyl]pyrazol-4-yl]pyrazolo[1,5-a]pyrimidine-3-carboxamide]	0.15	21	–
CNCCn1nnc(Cn2cc(NC(=O)c3cnn4cccnc34)c(-c3cc(OC(F)F)ccc3OC(F)F)n2)n1 [Example 20, N-[3-[2,5-bis(difluoromethoxy)phenyl]-1-[[2-[2-(methylamino)ethyl]tetrazol-5-yl]methyl]pyrazol-4-yl]pyrazolo[1,5-a]pyrimidine-3-carboxamide]	0.46	30	–
CN(C)CCN1CC(n2nnc(Cn3cc(NC(=O)c4cnn5cccnc45)c(-c4cc(OC(F)F)ccc4OC(F)F)n3)n2)C1 [Example 21, N-[3-[2,5-bis(difluoromethoxy)phenyl]-1-[[2-[1-[2-(dimethylamino)ethyl]azetidin-3-yl]tetrazol-5-yl]methyl]pyrazol-4-yl]pyrazolo[1,5-a]pyrimidine-3-carboxamide]	0.39	15	–
CN1CCC(n2nnc(Cn3cc(NC(=O)c4cnn5cccnc45)c(-c4cc(OC(F)F)ccc4OC(F)F)n3)n2)CC1 [Example 22]	0.3	19	–
CN1CC(n2nnc(Cn3cc(NC(=O)c4cnn5cccnc45)c(-c4cc(C5CC5)ccc4OC(F)F)n3)n2)C1 [Example 23, N-[3-[5-cyclopropyl-2-(difluoromethoxy)phenyl]-1-[[2-(1-methylazetidin-3-yl)tetrazol-5-yl]methyl]pyrazol-4-yl]pyrazolo[1,5-a]pyrimidine-3-carboxamide]	0.24	17	–
